Reference: ChEMBL document CHEMBL4665836, “Overcoming β-Lactam resistance in Pseudomonas aeruginosa using non-canonical tobramycin-based antibiotic adjuvants” (2020)

Assays:
Format in all cases: functional
Pseudomonas aeruginosa [1] = assay: Potentiation of ceftazidime-induced antibacterial activity against carbapenem-resistant Pseudomonas aeruginosa 88949 clinical isolate assessed as fold reduction in ceftazidime MIC at 8 uM in presence of beta-lactamase inhibitor, avi-bactam
Pseudomonas aeruginosa [2] = assay: Potentiation of imipenem-induced antibacterial activity against carbapenem-resistant Pseudomonas aeruginosa 109084 clinical isolate assessed as imipenem MIC at 8 uM by checkerboard assay (reference value: 16 ug/ml)
Pseudomonas aeruginosa [3] = assay: Potentiation of imipenem-induced antibacterial activity against carbapenem-resistant Pseudomonas aeruginosa 107092 clinical isolate assessed as imipenem MIC at 8 uM by checkerboard assay (reference value: 64 ug/ml)
Pseudomonas aeruginosa [4] = assay: Potentiation of imipenem-induced antibacterial activity against carbapenem and colistin-resistant Pseudomonas aeruginosa 101243 clinical isolate assessed as imipenem MIC at 8 uM by checkerboard assay (reference value: 8 ug/ml)
Pseudomonas aeruginosa [5] = assay: Potentiation of imipenem-induced antibacterial activity against carbapenem-resistant Pseudomonas aeruginosa 262-101856 clinical isolate assessed as imipenem MIC at 8 uM by checkerboard assay (reference value: 32 ug/ml)
Pseudomonas aeruginosa [6] = assay: Potentiation of ceftazidime-induced antibacterial activity against carbapenem-resistant Pseudomonas aeruginosa PAO750 harboring and mexAB-oprM/mexCD-oprJ/mexEF-oprN/mexJK/mexXY/opmH efflux deficient mutant assessed as ceftazidime MIC at 8 uM by checkerboard assay (reference value: 0.5 ug/ml)
Pseudomonas aeruginosa [7] = assay: Potentiation of ceftazidime-induced antibacterial activity against carbapenem and colistin-resistant Pseudomonas aeruginosa 101243 clinical isolate assessed as ceftazidime MIC at 8 uM by checkerboard assay (reference value: 64 ug/ml)
Pseudomonas aeruginosa [8] = assay: Potentiation of aztreonam-induced antibacterial activity against carbapenem-resistant Pseudomonas aeruginosa 101885 clinical isolate assessed as aztreonam MIC at 8 uM by checkerboard assay (reference value: 16 ug/ml)
Pseudomonas aeruginosa [9] = assay: Potentiation of aztreonam-induced antibacterial activity against carbapenem and colistin-resistant Pseudomonas aeruginosa 91433 clinical isolate assessed as aztreonam MIC at 8 uM by checkerboard assay (reference value: 16 ug/ml)
Pseudomonas aeruginosa [10] = assay: Potentiation of ceftazidime-induced antibacterial activity against carbapenem-resistant Pseudomonas aeruginosa 107092 clinical isolate assessed as ceftazidime MIC at 8.7 uM by checkerboard assay (reference value: 128 ug/ml)
Pseudomonas aeruginosa [11] = assay: Potentiation of ceftazidime-induced antibacterial activity against carbapenem and colistin-resistant Pseudomonas aeruginosa 114228 clinical isolate assessed as ceftazidime MIC at 8.7 uM by checkerboard assay (reference value: 8 ug/ml)
Pseudomonas aeruginosa [12] = assay: Potentiation of ceftazidime-induced antibacterial activity against carbapenem and colistin-resistant Pseudomonas aeruginosa 101243 clinical isolate assessed as ceftazidime MIC at 8.7 uM by checkerboard assay (reference value: 64 ug/ml)
Pseudomonas aeruginosa [13] = assay: Potentiation of ceftazidime-induced antibacterial activity against carbapenem-resistant Pseudomonas aeruginosa 101885 clinical isolate assessed as ceftazidime MIC at 8.7 uM by checkerboard assay (reference value: 8 ug/ml)
Pseudomonas aeruginosa [14] = assay: Potentiation of ceftazidime-induced antibacterial activity against carbapenem-resistant Pseudomonas aeruginosa 100036 clinical isolate assessed as ceftazidime MIC at 8.7 uM by checkerboard assay (reference value: 8 ug/ml)
Pseudomonas aeruginosa [15] = assay: Potentiation of ceftazidime-induced antibacterial activity against carbapenem-resistant Pseudomonas aeruginosa 264-104354 clinical isolate assessed as ceftazidime MIC at 8.7 uM by checkerboard assay (reference value: 128 ug/ml)
Pseudomonas aeruginosa [16] = assay: Potentiation of ceftazidime-induced antibacterial activity against carbapenem-resistant Pseudomonas aeruginosa 262-101856 clinical isolate assessed as ceftazidime MIC at 8.7 uM by checkerboard assay (reference value: 16 ug/ml)
Pseudomonas aeruginosa [17] = assay: Potentiation of ceftazidime-induced antibacterial activity against carbapenem-resistant Pseudomonas aeruginosa 259-96918 clinical isolate expressing metallo-beta-lactamase assessed as ceftazidime MIC at 8.7 uM by checkerboard assay (reference value: 512 ug/ml)
Pseudomonas aeruginosa [18] = assay: Potentiation of ceftazidime-induced antibacterial activity against wild-type Pseudomonas aeruginosa PAO1 assessed as ceftazidime MIC at 8.7 uM by checkerboard assay (reference value: 2 ug/ml)
Pseudomonas aeruginosa [19] = assay: Potentiation of aztreonam-induced antibacterial activity against carbapenem-resistant Pseudomonas aeruginosa PAO750 harboring and mexAB-oprM/mexCD-oprJ/mexEF-oprN/mexJK/mexXY/opmH efflux deficient mutant assessed as aztreonam MIC at 8.7 uM by checkerboard assay (reference value: 0.5 ug/ml)
Pseudomonas aeruginosa [20] = assay: Potentiation of aztreonam-induced antibacterial activity against carbapenem-resistant Pseudomonas aeruginosa PAO200 harboring and mexAB-oprM efflux deficient mutant assessed as aztreonam MIC at 8.7 uM by checkerboard assay (reference value: 0.25 ug/ml)
Pseudomonas aeruginosa [21] = assay: Potentiation of aztreonam-induced antibacterial activity against carbapenem-resistant Pseudomonas aeruginosa 109084 clinical isolate assessed as aztreonam MIC at 8.7 uM by checkerboard assay (reference value: 64 ug/ml)
Pseudomonas aeruginosa [22] = assay: Potentiation of aztreonam-induced antibacterial activity against carbapenem-resistant Pseudomonas aeruginosa 108590 clinical isolate assessed as aztreonam MIC at 8.7 uM by checkerboard assay (reference value: 32 ug/ml)
Pseudomonas aeruginosa [23] = assay: Potentiation of aztreonam-induced antibacterial activity against carbapenem-resistant Pseudomonas aeruginosa 88949 clinical isolate assessed as aztreonam MIC at 8.7 uM by checkerboard assay (reference value: 32 ug/ml)
Pseudomonas aeruginosa [24] = assay: Potentiation of aztreonam-induced antibacterial activity against carbapenem-resistant Pseudomonas aeruginosa 86052 clinical isolate assessed as aztreonam MIC at 8.7 uM by checkerboard assay (reference value: 64 ug/ml)
Pseudomonas aeruginosa [25] = assay: Potentiation of aztreonam-induced antibacterial activity against carbapenem and colistin-resistant Pseudomonas aeruginosa 114228 clinical isolate assessed as aztreonam MIC at 8.7 uM by checkerboard assay (reference value: 32 ug/ml)
Pseudomonas aeruginosa [26] = assay: Potentiation of aztreonam-induced antibacterial activity against carbapenem-resistant Pseudomonas aeruginosa 101885 clinical isolate assessed as aztreonam MIC at 8.7 uM by checkerboard assay (reference value: 16 ug/ml)
Pseudomonas aeruginosa [27] = assay: Potentiation of aztreonam-induced antibacterial activity against carbapenem-resistant Pseudomonas aeruginosa 100036 clinical isolate assessed as aztreonam MIC at 8.7 uM by checkerboard assay (reference value: 16 ug/ml)
Pseudomonas aeruginosa [28] = assay: Potentiation of aztreonam-induced antibacterial activity against carbapenem and colistin-resistant Pseudomonas aeruginosa 91433 clinical isolate assessed as aztreonam MIC at 8.7 uM by checkerboard assay (reference value: 16 ug/ml)
Pseudomonas aeruginosa [29] = assay: Potentiation of aztreonam-induced antibacterial activity against carbapenem-resistant Pseudomonas aeruginosa 260-97103 clinical isolate assessed as aztreonam MIC at 8.7 uM by checkerboard assay (reference value: 64 ug/ml)
Pseudomonas aeruginosa [30] = assay: Potentiation of aztreonam-induced antibacterial activity against carbapenem-resistant Pseudomonas aeruginosa 259-96918 clinical isolate expressing metallo-beta-lactamase assessed as aztreonam MIC at 8.7 uM by checkerboard assay (reference value: 32 ug/ml)
Pseudomonas aeruginosa [31] = assay: Potentiation of aztreonam-induced antibacterial activity against wild-type Pseudomonas aeruginosa PAO1 assessed as aztreonam MIC at 8.7 uM by checkerboard assay (reference value: 4 ug/ml)

With `Cl.Cl.Cl.Cl.Cl.Cl.NC[C@H]1O[C@H](O[C@H]2[C@H](OCCCCCCCCCCCCN3CCN(c4cc5c(cc4F)c(=O)c(C(=O)O)cn5C4CC4)CC3)[C@@H](O[C@H]3O[C@H](CO)[C@@H](O)[C@H](N)[C@H]3O)[C@H](N)C[C@@H]2N)[C@H](N)C[C@@H]1O` the “fold change (FC)” value (Pseudomonas aeruginosa [1]) was 16, the MIC (Pseudomonas aeruginosa [2]) was 8 µg/mL and the MIC (Pseudomonas aeruginosa [3]) was 8 µg/mL. For the same compound, the MIC (Pseudomonas aeruginosa [4]) was 2 µg/mL, the MIC (Pseudomonas aeruginosa [5]) was 4 µg/mL and the MIC (Pseudomonas aeruginosa [6]) was 0.03 µg/mL. It also gave an MIC (Pseudomonas aeruginosa [7]) of 8 µg/mL, an MIC (Pseudomonas aeruginosa [8]) of 1 µg/mL and an MIC (Pseudomonas aeruginosa [9]) of 4 µg/mL.
In the case of `NC[C@H]1O[C@H](O[C@H]2[C@H](OCCCCCCCCN3CCCNCCNCCCNCC3)[C@@H](O[C@H]3O[C@H](CO)[C@@H](O)[C@H](N)[C@H]3O)[C@H](N)C[C@@H]2N)[C@H](N)C[C@@H]1O.O=C(O)C(F)(F)F.O=C(O)C(F)(F)F.O=C(O)C(F)(F)F.O=C(O)C(F)(F)F.O=C(O)C(F)(F)F.O=C(O)C(F)(F)F.O=C(O)C(F)(F)F.O=C(O)C(F)(F)F.O=C(O)C(F)(F)F`, the “fold change (FC)” value (Pseudomonas aeruginosa [1]) is reported as 16, the MIC (Pseudomonas aeruginosa [2]) is reported as 8 µg/mL and the MIC (Pseudomonas aeruginosa [3]) is reported as 16 µg/mL. It also gave an MIC (Pseudomonas aeruginosa [4]) of 8 µg/mL, an MIC (Pseudomonas aeruginosa [5]) of 16 µg/mL and an MIC (Pseudomonas aeruginosa [10]) of 32 µg/mL. For the same compound, the MIC (Pseudomonas aeruginosa [11]) was 1 µg/mL, the MIC (Pseudomonas aeruginosa [12]) was 8 µg/mL and the MIC (Pseudomonas aeruginosa [13]) was 1 µg/mL. It also gave an MIC (Pseudomonas aeruginosa [14]) of 2 µg/mL, an MIC (Pseudomonas aeruginosa [15]) of 32 µg/mL and an MIC (Pseudomonas aeruginosa [16]) of 4 µg/mL. It also gave an MIC (Pseudomonas aeruginosa [17]) of 64 µg/mL, an MIC (Pseudomonas aeruginosa [18]) of 0.25 µg/mL and an MIC (Pseudomonas aeruginosa [19]) of 0.03 µg/mL. The MIC (Pseudomonas aeruginosa [20]) was 0.02 µg/mL, the MIC (Pseudomonas aeruginosa [21]) was 8 µg/mL and the MIC (Pseudomonas aeruginosa [22]) was 8 µg/mL. It also gave an MIC (Pseudomonas aeruginosa [23]) of 16 µg/mL, an MIC (Pseudomonas aeruginosa [24]) of 16 µg/mL and an MIC (Pseudomonas aeruginosa [25]) of 4 µg/mL. It also gave an MIC (Pseudomonas aeruginosa [26]) of 0.5 µg/mL, an MIC (Pseudomonas aeruginosa [27]) of 2 µg/mL and an MIC (Pseudomonas aeruginosa [28]) of 16 µg/mL. For the same compound, the MIC (Pseudomonas aeruginosa [29]) was 8 µg/mL, the MIC (Pseudomonas aeruginosa [30]) was 4 µg/mL and the MIC (Pseudomonas aeruginosa [31]) was 0.25 µg/mL.
With `NC[C@H]1O[C@H](O[C@H]2[C@H](OCCCCc3cn(CCCCO[C@@H]4[C@@H](O)[C@H](N)C[C@H](N)[C@H]4O[C@H]4O[C@H](CN)[C@@H](O)C[C@H]4N)nn3)[C@@H](O)[C@H](N)C[C@@H]2N)[C@H](N)C[C@@H]1O.O=C(O)C(F)(F)F.O=C(O)C(F)(F)F.O=C(O)C(F)(F)F.O=C(O)C(F)(F)F.O=C(O)C(F)(F)F.O=C(O)C(F)(F)F.O=C(O)C(F)(F)F.O=C(O)C(F)(F)F` the “fold change (FC)” value (Pseudomonas aeruginosa [1]) was 16, the MIC (Pseudomonas aeruginosa [2]) was 16 µg/mL and the MIC (Pseudomonas aeruginosa [3]) was 32 µg/mL. The MIC (Pseudomonas aeruginosa [4]) was 8 µg/mL, the MIC (Pseudomonas aeruginosa [5]) was 4 µg/mL and the MIC (Pseudomonas aeruginosa [6]) was 0.13 µg/mL. For the same compound, the MIC (Pseudomonas aeruginosa [7]) was 32 µg/mL, the MIC (Pseudomonas aeruginosa [8]) was 4 µg/mL and the MIC (Pseudomonas aeruginosa [9]) was 2 µg/mL.
`NC[C@H]1O[C@H](O[C@H]2[C@H](OCCCCCCCCN3CCCNCCNCCCNCC3)[C@@H](O)[C@H](N)C[C@@H]2N)[C@H](N)C[C@@H]1O.O=C(O)C(F)(F)F.O=C(O)C(F)(F)F.O=C(O)C(F)(F)F.O=C(O)C(F)(F)F.O=C(O)C(F)(F)F.O=C(O)C(F)(F)F.O=C(O)C(F)(F)F.O=C(O)C(F)(F)F` was tested, and the “fold change (FC)” value (Pseudomonas aeruginosa [1]) was 16, the MIC (Pseudomonas aeruginosa [2]) was 16 µg/mL and the MIC (Pseudomonas aeruginosa [3]) was 32 µg/mL. The MIC (Pseudomonas aeruginosa [4]) was 8 µg/mL, the MIC (Pseudomonas aeruginosa [5]) was 16 µg/mL and the MIC (Pseudomonas aeruginosa [6]) was 0.13 µg/mL. The MIC (Pseudomonas aeruginosa [7]) was 8 µg/mL, the MIC (Pseudomonas aeruginosa [8]) was 4 µg/mL and the MIC (Pseudomonas aeruginosa [9]) was 8 µg/mL.
